Laboratory results taken from PMC10747602, “Dose Response, Dosimetric, and Metabolic Evaluations of Replacement PFAS Perfluoro-(2,5,8-trimethyl-3,6,9-trioxadodecanoic) Acid (HFPO-TeA)” (Toxics, 2023).

Tests used:
[1] = Hepatocyte metabolic stability (clearance) assay, human hepatocytes; conditions: human, hepatocytes, 1000 nM
Experimental: (§1) Information on the chemicals and materials used in the hepatocyte metabolic work can be found in Supplementary Text S9 and Table S3. In vitro evaluations of hepatocyte metabolic stability were performed in human and rat hepatocytes, as previously described. Briefly, pooled, cryopreserved hepatocyte suspensions were thawed, assessed for viability, and then diluted in William’s medium E containing dexamethasone and cell maintenance cocktail B to achieve a cell density of 50,000 cells/100 µL. The assay was started by adding hepatocyte suspensions to wells of 96-well polypropylene plates containing an equal volume of media with 2 µM of analyte (final assay concentration: 1 µM). Plates were placed in a 37 °C cell culture incubator (5% CO2) on a shaker set to 200 rpm. Time points assessed were T0, T15, T30, T60, T120, and T240 min. At each time point, the plates were removed from the shaker and the incubates were crashed with an equal volume of ice-cold ACN containing 1.2% FA and 16 ng/mL of ^13C3 -HFPO-DA. After chilling and centrifugation at 4122× g, the supernatants were transferred to new collection plates and stored at −70 °C until analysis for the parent compound on the Waters instrumentation described below. Immediately prior to analysis, samples were thawed, vortexed, and centrifuged at 4200× g, and then diluted 1:4 in 95:5 H2O/ACN with 2.5 mM of ammonium acetate. Negative controls, including no cell controls and metabolically inactivated hepatocytes, were run concurrently to assess the chemical stability over the time course.
(§2) Intrinsic clearance (Clint; hepatic clearance) calculations are detailed in Supplementary Text S9 [57].
(§3) Targeted, quantitative analysis of in vitro hepatocyte metabolic stability and plasma protein binding assay samples was conducted on a Waters Xevo-TQS micro mass spectrometer (Waters, Milford, MA, USA) ultra-high-performance liquid chromatography tandem mass spectrometry system (UPLC-MS/MS), modified with a PFAS analysis kit. Samples were analyzed in negative ion mode with UniSpray ionization. A CORTECS T3 column (Waters CORTECS, 3 × 100 mm, particle size 2.7 µm) was used for chromatographic separation with a flow rate of 0.6 mL/min and a temperature of 55 °C. Gradient elution was used with eluent A (95:5 H2O/ACN) and eluent B (95:5 ACN/H2O) with 2.5 mM of ammonium acetate. The gradient is available in Table S11. Additional details for MS parameters are found in Table S12 and monitored transitions are found in Table S13.
(§4) Table S2: Data processing parameters used with Sciex MarkerView 1.3.1.
(§5) Support ing Text S9: Hepatocyte Metabolic Stability Assay Materials, Chemicals, and Calculations
(§6) Pooled human and rat cryopreserved primary hepatocyte suspensions were both obtained from
(§7) BioIVT, a US Food and Drug Administration-licensed and inspected donor center, and produced using
(§8) non-transplantable tissue.
(§9) William’s E media, dexamet hasone (98% pure), and cell maintenance cocktail B were obtained from
(§10) Thermo Fisher Scientific (Waltham, MA, USA), the OptiThaw hepatocyte kit from Sekisui/Xenotech
(§11) (Tokyo, Japan), and the trypan blue s (Sekisui/ Xenotech, Tokyo, Japan) and the trypan blue solution from […]

[2] = Hepatocyte metabolic stability (clearance) assay, rat hepatocytes; conditions: both, Sprague Dawley, rat, hepatocytes
Experimental: as §1, §2, §3, §4, §5, §6, §7, §8, §9, §10, §11

[3] = parameters: method as in PMID 21948869, PMID 36309054; conditions: cited from earlier work

Row | Compound | half-life at 1 µM ([1]; HT-Background Half Life, heat treated human hepatocytes) [h] | half-life at 1 µM ([1]; Half Life, human hepatocytes, time in min) [h] | half-life at 1000 nM [2] [h] | underestimation of Css values by previous IVIVE evaluations [3] [×]
1 | CC(C)NCC(O)COc1cccc2ccccc12 (stereo not shown) [Propranolol, reference compound] | 12.3 | 1.63 | 0.261 | 
2 | O=S(=O)(O)C(F)(F)C(F)(F)C(F)(F)C(F)(F)C(F)(F)C(F)(F)C(F)(F)C(F)(F)F [PFOS, perfluorooctane sulfonic acid] |  |  |  | > 100
